{"source": "patent US20210368793A1", "about": "“Method for Controlling PPO Resistant Weeds” (BASF SE, priority 2016, published 2021)", "type_in_all_cases": "in vivo", "key": {"[1]": {"tested_on": "Amaranthus tamariscinus (common waterhemp, AMATA), PPO resistant biotype 2 containing the ΔG210 mutation (w.3)", "test": "Greenhouse herbicidal test, PPO resistant common waterhemp biotype 2 (w.3)", "settings": "for activity on resistant weeds (w.3), in words: summary of the table, 2 and 4 g/ha, ΔG210 mutation; for Weed control (%) w.3: PPO resistant biotype 2 (ΔG210), scale 0 to 100", "source_text": "(§1) The culture containers used were plastic flowerpots containing loamy sand with approximately 3.0% of humus as the substrate. The seeds of the test plants were sown separately for each species and/or resistant biotype. For the pre-emergence treatment, the active ingredients, which had been suspended or emulsified in water, were applied directly after sowing by means of finely distributing nozzles. The containers were irrigated gently to promote germination and growth and subsequently covered with transparent plastic hoods until the plants had rooted. This cover caused uniform germination of the test plants, unless this had been impaired by the active ingredients. For the post-emergence treatment, the test plants were first grown to a height of 3 to 15 cm, depending on the plant habit, and only then treated with the active ingredients which had been suspended or emulsified in water. For this purpose, the test plants were either sown directly and grown in the same containers, or they were first grown separately as seedlings and transplanted into the test containers a few days prior to treatment. Depending on the species, the plants were kept at 10-25° C. or 20-35° C., respectively. The test period extended over 2 to 4 weeks. During this time, the plants were tended, and their response to the individual treatments was evaluated. The evaluation was carried out by using a scale from 0 to 100. 100 means no emergence of the plants or complete destruction of at least the above-ground parts, and 0 means no damage, or normal course of growth.\n(§2) The plants used in the greenhouse experiments were of the following species and biotype: […]"}, "[2]": {"tested_on": "Amaranthus tamariscinus (common waterhemp, AMATA), PPO resistant biotype 1 containing the ΔG210 mutation (w.2)", "test": "Greenhouse herbicidal test, PPO resistant common waterhemp biotype 1 (w.2)", "settings": "for activity on resistant weeds (w.2), in words: summary of the table, 2 and 4 g/ha, ΔG210 mutation; for Weed control (%) w.2: PPO resistant biotype 1 (ΔG210), scale 0 to 100", "source_text": "as §1, §2"}, "[3]": {"tested_on": "Amaranthus tamariscinus (common waterhemp, AMATA), sensitive biotype (w.1)", "test": "Greenhouse herbicidal test, sensitive common waterhemp (w.1)", "settings": "for Weed control (%) w.1: sensitive biotype, scale 0 (no damage) to 100 (complete destruction)", "source_text": "as §1, §2"}}}
{"smiles": "O=C1[C@H]2C[C@H](F)CN2C(=O)N1c1cc(NS(=O)(=O)CCl)c(Cl)cc1F", "note": "[(I).1, profluazol]", "values": [{"measurement": "activity on resistant weeds (w.3), in words", "setting": "[1]", "result": "very good activity"}, {"measurement": "Weed control (%) w.3", "setting": "[1]; use rate 2 g/ha", "result": 80, "unit": "%"}, {"measurement": "Weed control (%) w.3", "setting": "[1]; use rate 4 g/ha", "result": 88, "unit": "%"}, {"measurement": "activity on resistant weeds (w.2), in words", "setting": "[2]", "result": "very good activity"}, {"measurement": "Weed control (%) w.2", "setting": "[2]; use rate 2 g/ha", "result": 78, "unit": "%"}, {"measurement": "Weed control (%) w.2", "setting": "[2]; use rate 4 g/ha", "result": 92, "unit": "%"}, {"measurement": "activity on sensitive weeds (w.1), in words", "setting": "[3]; summary of the table, 2 and 4 g/ha", "result": "very good activity"}, {"measurement": "Weed control (%) w.1", "setting": "[3]; use rate 2 g/ha", "result": 88, "unit": "%"}, {"measurement": "Weed control (%) w.1", "setting": "[3]; use rate 4 g/ha", "result": 100, "unit": "%"}]}
{"smiles": "C#CCOc1cc(-n2nc3n(c2=O)CCCC3)c(Cl)cc1Cl", "note": "[azafenidin, reference compound]", "values": [{"measurement": "activity on resistant weeds (w.3), in words", "setting": "[1]", "result": "much weaker control of resistant in comparison to sensitive biotypes"}, {"measurement": "Weed control (%) w.3", "setting": "[1]; use rate 2 g/ha", "result": 77, "unit": "%"}, {"measurement": "Weed control (%) w.3", "setting": "[1]; use rate 4 g/ha", "result": 77, "unit": "%"}, {"measurement": "activity on resistant weeds (w.2), in words", "setting": "[2]", "result": "much weaker control of resistant in comparison to sensitive biotypes"}, {"measurement": "Weed control (%) w.2", "setting": "[2]; use rate 2 g/ha", "result": 62, "unit": "%"}, {"measurement": "Weed control (%) w.2", "setting": "[2]; use rate 4 g/ha", "result": 78, "unit": "%"}, {"measurement": "Weed control (%) w.1", "setting": "[3]; use rate 2 g/ha", "result": 88, "unit": "%"}, {"measurement": "Weed control (%) w.1", "setting": "[3]; use rate 4 g/ha", "result": 100, "unit": "%"}]}
